Experimental data published in patent publication US20260309717A1, “PROXIMITY INDUCING SYSTEM AND USES THEREOF” (SORBONNE UNIVERSITE, priority 2022, published 2026).

Columns and labels:
Format in all cases: cell-based
[1] = tested on: mCherry-FKBP-^FIREtag / TOM20-^FIREmate / FRB-ECFP-Giantin; experiment: Orthogonality with FRB-FKBP-rapamycin CIP system, confocal microscopy, HeLa cells; conditions: simultaneous addition of 10 μM HBR-2,5DM and 500 nM rapamycin
Method: FIG. 12A is a representation of the experimental design wherein HeLa cells co-expressing mCherry-FKBP-^FIREtag, TOM20-^FIREmate and FRB-ECFP-Giantin were treated with 10 μM of match (i.e., HBR-2,5DM) and 500 nM rapamycin, and imaged by time-lapse confocal microscopy. FIG. 12B is a set of representative confocal micrographs of cells before and after addition of HBR-2,5DM (match1) and rapamycin (rap) (mCherry: ex/em 561/606-675 nm; FIRE: ex/em 488/508-570 nm; ECFP: ex/em 445/455-499 nm). Scale bars are 20 μm.
The confocal micrographs were acquired on a Zeiss LSM 980 Laser Scanning Microscope equipped with a plan apochromat 63x/1.4 NA oil immersion objective. ZEN software was used to collect the data. The images were analyzed using Icy (2.4.0.0) and Fiji (Image J). In short, to track fluorescence signal in a specific organelle, a ROI (region of interest) was determined by masking the signal in the ECFP (Enhanced Cyan Fluorescent Protein) channel with the plug-in HK-means with the following parameters: intensity class equals 100, minimum object size (pixels or px) equals 500, maximum object size (px) equals 1500-3000. The signal intensity of the ROI was tracked over time for each channel by using plug-in Active Contours. The background signal was subtracted. Data were processed using GraphPad Prism v9.3.0. […]

[2] = molecular target: T1, ^FIREmate and ^FIREtag (fused to FRB and FKBP) (Halorhodospira halophila, UniProt P16113, A30V/C69G/D97P/F96I, form not given/G21E/G25R/K17N/M100R/M109L/Q41L/Q99S/S72T/T101G/V83A/Y94W/Y98T); experiment: Flow cytometry of fluorescent ternary assembly formation in HEK293T cells co-expressing FKBP-^FIREtag and FRB-^FIREmate
T1 sequence (P16113 1-114 A30V/C69G/D97P/F96I/G21E/G25R/K17N/M100R/M109L/Q41L/Q99S/S72T/T101G/V83A/Y94W/Y98T): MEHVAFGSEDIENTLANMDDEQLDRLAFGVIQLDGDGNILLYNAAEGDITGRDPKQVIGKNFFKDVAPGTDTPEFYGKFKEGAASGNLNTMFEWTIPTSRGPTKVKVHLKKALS
Method: FIGS. 2A and 2B are graphs illustrating the fluorogen-dependent interaction between the two polypeptides ^FIREmate and ^FIREtag. The graphs show the normalized average fluorescence detected from about 50,000 HEK293T cells co-expressing the FK506-binding protein (FKBP) fused to ^FIREtag and the FKBP-rapamycin-binding domain of mammalian target of rapamycin (FRB) fused to ^FIREmate treated without (triangles) or with (squares) 500 nM of rapamycin, and with 1, 5, 10, 25 or 50 μM of HBR-2,5DM (2A) or HMBR (2B). Data represent the mean values±SD of three independent experiments.
The formation of a fluorescent ternary assembly was assessed by flow cytometry in HEK293 cells expressing ^FIREmate and ^FIREtag fused to the C-termini of FKBP (FK506-binding protein) and FRB (FKBP-rapamycin-binding domain of mammalian target of rapamycin), […]. FKBP and FRB are able to dimerize upon addition of rapamycin. Treatment of the HEK293 cells with rapamycin is thus expected to induce the dimerization of FKBP and FRB, and subsequently to induce proximity between ^FIREtag and ^FIREmate.

[3] = molecular target: T2, mCherry-^FIREtag / ^FIREmate-ECFP-Giantin (Halorhodospira halophila, UniProt P16113, A30V/C69G/D97P/F96I, form not given/G21E/G25R/K17N/M100R/M109L/Q41L/Q99S/S72T/T101G/V83A/Y94W/Y98T); experiment: Recruitment of cytoplasmic protein to the Golgi apparatus, HeLa cells; conditions: 10 μM
T2 construct: FIREmate-ECFP-Giantin(3131-3259) and mCherry-FIREtag in HeLa cells
T2 sequence (P16113 1-114 A30V/C69G/D97P/F96I/G21E/G25R/K17N/M100R/M109L/Q41L/Q99S/S72T/T101G/V83A/Y94W/Y98T): T1 sequence (P16113 1-114 A30V/C69G/D97P/F96I/G21E/G25R/K17N/M100R/M109L/Q41L/Q99S/S72T/T101G/V83A/Y94W/Y98T)
Method: FIGS. 6A-E illustrate the recruitment of cytoplasmic proteins to the Golgi apparatus with the proximity inducing system described herein. FIG. 6A is a representation of the experimental design wherein HeLa cells co-expressing mCherry-^FIREtag and ^FIREmate-ECFP-Giantin were treated with 10 µM of match (either HBR-2,5DM or HMBR), and imaged by time-lapse confocal microscopy. FIGS. 6B-C are graphs showing the temporal evolution of the FIRE signal detected upon addition at 0 min of HBR-2,5DM (match1-6B) or HMBR (match2-6C). Data represents the mean values±SD of 10 cells from n=3 independent experiments (6B, D), or of 12 cells from n=3 independent experiments (6C, E). FIGS. 6D-E are sets of representative confocal micrographs of cells before (0 min) and after (5 min) addition of HBR-2,5DM (match1-6D) or HMBR (match2-6E) (mCherry: ex/em 561/606-675 nm; FIRE: ex/em 488/508-570 nm; ECFP: ex/em 445/455-499 nm). […] Scale bars are 20 μm.
(§1) The confocal micrographs were acquired on a Zeiss LSM 980 Laser Scanning Microscope equipped with a plan apochromat 63x/1.4 NA oil immersion objective. ZEN software was used to collect the data. The images were analyzed using Icy (2.4.0.0) and Fiji (Image J). In short, to track fluorescence signal in a specific organelle, a ROI (region of interest) was determined by masking the signal in the ECFP (Enhanced Cyan Fluorescent Protein) channel with the plug-in HK-means with the following parameters: intensity class equals 100, minimum object size (pixels or px) equals 500, maximum object size (px) equals 1500-3000. The signal intensity of the ROI was tracked over time for each channel by using plug-in Active Contours. The background signal was subtracted. Data were processed using GraphPad Prism v9.3.0.
(§2) To further evaluate the scope of the proximity inducing system described herein and show its versatility, ^FIREmate was anchored at the membrane of various organelles or cellular structures so that ^FIREmate faced the cytosol. ^FIREmate was thus fused: • to the N-terminus of the transmembrane domain (amino acid residues at positions 3131-3259) of Giantin for location at the cis-medial rims of the Golgi apparatus (FIG. 6A), • to the N-terminus of the transmembrane domain (amino acid residues at positions 100-134) of the cytochrome b5 (Cb5) for location at the endoplasmic reticulum membrane (FIG. 7A), and • to the C-terminus of the Lyn11 inner membrane targeting sequence for location at the plasma membrane (FIG. 8A).
(§3) For each construct, an ECFP was inserted between ^FIREmate and the other protein domain/sequence to monitor the localization of the resulting fusion protein (blue fluorescence). Each fusion protein was co-expressed in mammalian cells (HeLa cells or HEK293 cells as indicated) together with mCherry-^FIREtag (red fluorescence). […]

[4] = molecular target: T3, mCherry-^FIREtag / ^FIREmate-ECFP-Cb5 (Halorhodospira halophila, UniProt P16113, A30V/C69G/D97P/F96I, form not given/G21E/G25R/K17N/M100R/M109L/Q41L/Q99S/S72T/T101G/V83A/Y94W/Y98T); experiment: Recruitment of cytoplasmic protein to the endoplasmic reticulum, HeLa cells; conditions: 10 μM
T3 construct: FIREmate-ECFP-Cb5(100-134) and mCherry-FIREtag in HeLa cells
T3 sequence (P16113 1-114 A30V/C69G/D97P/F96I/G21E/G25R/K17N/M100R/M109L/Q41L/Q99S/S72T/T101G/V83A/Y94W/Y98T): T1 sequence (P16113 1-114 A30V/C69G/D97P/F96I/G21E/G25R/K17N/M100R/M109L/Q41L/Q99S/S72T/T101G/V83A/Y94W/Y98T)
Method: FIGS. 7A-E illustrate the recruitment of cytoplasmic proteins to the endoplasmic reticulum with the proximity inducing system described herein. FIG. 7A is a representation of the experimental design wherein HeLa cells co-expressing mCherry-^FIREtag and ^FIREmate-ECFP-Cb5 were treated with 10 μM of match (either HBR-2,5DM or HMBR), and imaged by time-lapse confocal microscopy. FIGS. 7B-C are graphs showing the temporal evolution of the FIRE signal detected upon addition at 0 min of HBR-2,5DM (match1-7C) or HMBR (match2-7D). Data represents the mean values±SD of 17 cells from n=3 independent experiments (7B, D), or of 18 cells from n=3 independent experiments (7C, E). FIGS. 7D-E are sets of representative confocal micrographs of cells before (0 min) and after (5 min) addition of HBR-2,5DM (match1-7D) or HMBR (match2-7E) (mCherry: ex/em 561/606-675 nm; FIRE: ex/em 488/508-570 nm; ECFP: ex/em 445/455-499 nm). […] Scale bars are 20 μm.
as §1, §2, §3

[5] = molecular target: T4, mCherry-^FIREtag / Lyn11-ECFP-^FIREmate (Halorhodospira halophila, UniProt P16113, A30V/C69G/D97P/F96I, form not given/G21E/G25R/K17N/M100R/M109L/Q41L/Q99S/S72T/T101G/V83A/Y94W/Y98T); experiment: Recruitment of cytoplasmic protein to the plasma membrane, HEK293 cells; conditions: 10 μM
T4 construct: Lyn11-ECFP-FIREmate and mCherry-FIREtag in HEK293 cells
T4 sequence (P16113 1-114 A30V/C69G/D97P/F96I/G21E/G25R/K17N/M100R/M109L/Q41L/Q99S/S72T/T101G/V83A/Y94W/Y98T): T1 sequence (P16113 1-114 A30V/C69G/D97P/F96I/G21E/G25R/K17N/M100R/M109L/Q41L/Q99S/S72T/T101G/V83A/Y94W/Y98T)
Method: FIGS. 8A-E illustrate the recruitment of cytoplasmic proteins to the plasma membrane with the proximity inducing system described herein. FIG. 8A is a representation of the experimental design wherein HEK293 cells co-expressing mCherry-^FIREtag and Lyn11-ECFP-^FIREmate were treated with 10 μM of match (either HBR-2,5DM or HMBR), and imaged by time-lapse confocal microscopy. FIGS. 8B-C are graphs showing the temporal evolution of the FIRE signal detected upon addition at 0 min of HBR-2,5DM (match1-8B) or HMBR (match2-8C). Data represents the mean values±SD of 22 cells from n=3 independent experiments (8B, D), or of 30 cells from n=3 independent experiments (8C, E). FIGS. 8D-E are sets of representative confocal micrographs of cells before (0 min) and after (5 min) addition of HBR-2,5DM (match1-8D) or HMBR (match2-8E) (mCherry: ex/em 561/606-675 nm; FIRE: ex/em 488/508-570 nm; ECFP: ex/em 445/455-499 nm). […] Scale bars are 20 μm.
as §1, §2, §3

[6] = molecular target: T2, mCherry-^FIREtag / ^FIREmate-ECFP-Giantin; experiment: Induction of proximity with a non-fluorogenic chromophore, HeLa cells; conditions: 10 μM
Method: HeLa cells co-expressing mCherry-^FIREtag and ^FIREmate-ECFP-Giantin were treated with 10 μM HBR-2,5DM (match1), washed with HBR-2,5DM-free medium and then treated with 10 μM HBIR-3M. Cells were imaged by time-lapse spinning-disk confocal microscopy. FIGS. 9A-D are sets of representative confocal micrographs of untreated cells (9A), cells after addition of HBR-2,5DM (match1) (9B), cells after washout of HBR-2,5DM (match1) (9C), and cells after addition of HBIR-3M (9D). (mCherry: ex/em 561/606-675 nm; FIRE: ex/em 488/508-570 nm). Scale bars are 10 μm.
Next, experiments were carried out to investigate whether other chromophores could act as molecular inducer of proximity and provide new properties. In particular, non-fluorogenic chromophores, such as HBIR-3M, were investigated. […] The fusion proteins mCherry-^FIREtag (red fluorescence) and ^FIREmate-ECFP-Giantin (blue fluorescence) were co-expressed in HeLa cells as described above.

## CO[C@H]1C[C@@H]2CC[C@@H](C)[C@@](O)(O2)C(=O)C(=O)N2CCCC[C@H]2C(=O)O[C@H]([C@H](C)C[C@@H]2CC[C@@H](O)[C@H](OC)C2)CC(=O)[C@H](C)/C=C(\C)[C@@H](O)[C@@H](OC)C(=O)[C@H](C)C[C@H](C)/C=C/C=C/C=C/1C [rapamycin, reference compound]
[1]
  translocation of mCherry-FKBP-^FIREtag: triggered the translocation of mCherry-FKBP-^FIREtag to the Golgi apparatus and to the mitochondria

## Cc1cc(/C=C2\SC(=S)NC2=O)ccc1O [HMBR, (Z)-5-(4-hydroxy-3-methylbenzylidene)-2-thioxo-1,3-thiazolidin-4-one]
[2]; absence of rapamycin
  dimerization of FKBP and FRB (induced proximity): able to induce the dimerization of FKBP and FRB
[2]; fluorogen 1, 5, 10, 25 or 50 μM, HEK293 cells
  formation of a ternary fluorescent assembly: induced the formation of a ternary fluorescent assembly at all tested fluorogen concentrations
[2]; with or without 500 nM rapamycin, fluorogen 1-50 μM
  dependence of ternary fluorescent assembly formation on rapamycin (initial proximity): regardless of the presence or absence of rapamycin
[3]
  FIRE signal at the Golgi apparatus: simultaneous appearance of green fluorescence
  translocation of mCherry-^FIREtag to the Golgi apparatus: rapid translocation of mCherry-^FIREtag to the organelle
[4]
  FIRE signal at the endoplasmic reticulum: simultaneous appearance of green fluorescence
  translocation of mCherry-^FIREtag to the endoplasmic reticulum: rapid translocation of mCherry-^FIREtag to the organelle
[5]
  FIRE signal at the plasma membrane: simultaneous appearance of green fluorescence
  translocation of mCherry-^FIREtag to the plasma membrane: rapid translocation of mCherry-^FIREtag to the organelle

## Cc1cc(/C=C2\SC(=O)NC2=S)ccc1O [HBIR-3M, (Z)-5-(4-hydroxy-3-methylbenzylidene)-4-thioxo-1,3-thiazolidin-2-one]
[6]
  assembly with ^FIREtag and ^FIREmate (tightness, fluorescence): very tight non-fluorescent ‘invisible’ assembly
[6]; cycles of sequential addition and removal
  induction of proximity relative to HBR-2,5DM: as efficiently as HBR-2,5DM
